Counter-ions that a name gives are not always drawn. Like-named read-outs stand apart in the source and are kept apart here.
What was measured:
Format in all cases: cell-based
[1] = tested on: Aβ42 generation from APP in CHO cells stably expressing hAPP-REPNL751; experiment: Aβ-lowering electrochemiluminescent (MSD ECL) assay of conditioned media, Aβ42
Protocol: (§1) The activity of compounds in lowering the generation of Aβ40 and Aβ42, the most abundant forms of beta amyloid, from APP (amyloid precursor protein) was measured in an electrochemiluminescent (ECL) assay of conditioned media from chinese hamster ovary (CHO) cells stably expressing the human amyloid precursor protein (APP) reporter construct, hAPP-REPNL751 [Sughir, R. et al.; J. Biolog. Chem. (1992) 267: 25602-25608]. Aβ peptides were secreted at high levels into cell culture media by cells carrying the human APP transgene; compounds were tested for their capacity to modulate this production. The Aβ peptide in the conditioned medium was quantitated by a sandwich immunoassay with the Meso Scale Discovery® (MSD®) ECL detection system. Cell metabolism was measured using MTS salt kit (containing a tetrazolium compound 3-(4,5-dimethylthiazol-2-yl)-5-(3-carboxymethoxyphenyl)-2-(4-sulfophenyl)-2H-tetrazolium, inner salt; MTS(a) which measures the mitochondrial activity of cells by the bioreduction of Owen's reagent). This assay consists of the following protocol: • 1. Aβ-Lowering Assay. • a. hAPP-REPNL751 CHO cells were seeded into 96 well plates and incubated until about 60-70% confluence. • b. Medium was removed, cells were washed, and fresh serum-free medium (Ultraculture) was put on cells. • c. Compounds were diluted and then added to the cell medium. • d. Cells were incubated, with compounds, for indicated times. • e. Streptavidin coated Meso Scale Discover (MSD) plates (MSD standard Multi-Array™ 96 plate, cat. #P11SA-1) were washed 3× with TTBS (Tris-buffered saline, the Tween® 20 reagent). • f. 20 μL conditioned medium were removed from the cells, and added to the TTBS prewashed MSD® plates. • g. Standard curve dilutions of synthetic Aβ40 and Aβ42 were prepared and added to the MSD® plates. • h. A reagent mix was prepared in 1% MSD® Blocker A (appropriate concentration of biotinylated 6E10 antibody, detection antibodies to Aβ40, Aβ42, and MSD ruthinylated tag antibody). • i. 20 μL reagent mix was distributed to sample plate. • j. Plates were incubated with shaking overnight at 4° C. • k. Plates were washed 3× with TTBS. • l. 150 μL read buffer was added per well (MSD Read Buffer T, cat#R92TC-2, made 1× with distilled water). • m. Plates were read in MSD plate reader within 2 hours. • 2. MTS Assay: • a. Cells were seeded into 96 well plates and incubated until about 60-70% confluence. • b. Medium was removed, cells were washed, and fresh serum-free medium (Ultraculture) was put on cells. • c. Compounds were diluted and then added to the cell medium. • d. Cells were incubated, with compounds, for indicated times. • e. Using a robot, conditioned medium was removed from the cells, and transferred to a TTBS prewashed MSD plate. • f. Cells were washed 2× in phosphate buffered saline (PBS) and an MTS solution was plated onto the cells. After 1 hour, they were read on a plate reader at 560 nm to determine metabolic activity. • 3. Analysis of Results. • Assays were accepted or rejected based upon specific performance criteria, including regression coefficient of standard curve, adequate signal to noise ratio, sample signals lying within the range of the standard curve, etc. The specific parameters were established for each tissue type prior to performing an assay, and were included in the full analytical procedure. • Plate data from both assays (MTS and MSD ELISA) were transferred into a Microsoft Excel® spreadsheet to determine the toxicity, and inhibition caused by the compounds. Standard curves of Aβ were generated using LSW toolbar Hill slope model 42, with 1/y weighting (general sigmoidal curve with Hill slope, a to d; y=(a−d)/(1+(x/c)̂b)+d). […]

[2] = tested on: S3 (γ-secretase like) processing of Notch (Mouse Notch1 with deleted extracellular domain); experiment: Whole cell functional Notch assay (HES1-SEAP reporter, P8H6 CHO-K1 cells); conditions: Notch assay reference compounds, read-out: EC50 (Notch induced SEAP levels)
From the text: The activity of compounds in cleaving Notch can be measured in a whole cell functional Notch assay. This is an assay to determine the effects of compounds on the S3 (γ-secretase like) processing of Notch. […] SEAP transactivation is then detected by luminescent assay. The assay consists of the following protocol: • 1. Materials and Methods: • (a) Materials: The P8H6 inducible stable cell line was derived from T-REx™ CHO-K1, stably expressing Tet repressor, Notch (pZX1) and HES1-SEAP (pZX2) reporter constructs. A Wallace 1450® Victor Luminescence Counter is used to measure luminescent signal. […] For vehicle samples, the same volume of 0.2% DMSO/25 mM HEPES buffer was added. • Cells were incubated at 37° C., 5% CO2 for 48 hours. • SEAP levels in the conditioned media were assessed using the Clontech GreatEscAPe™ SEAP Chemiluminescence detection kit according to the manufacturer's instruction. […] After cooling, assay buffer was added, and the sample was incubated with the CSPD® substrate. • Luminescence was measured in a Wallace 1450 Victor luminescence counter. • 2. […] EC50 was calculated by […] using sigmoidal inhibition from B0 to nsb model (model 59). […] Inhibition of Notch processing was measured using the stable transfection reporter assay. […]

[3] = tested on: Aβ40 generation from APP in CHO cells stably expressing hAPP-REPNL751; experiment: Aβ-lowering electrochemiluminescent (MSD ECL) assay of conditioned media, Aβ40
Protocol: as §1

[4] = CHO, reference standards of the beta amyloid assay, read-out: EC50αβ42
[5] = electrochemiluminescent assay, hAPP-REPNL751 CHO cells, read-out: C40: EC50 for inhibition of Aβ40
[6] = electrochemiluminescent assay, hAPP-REPNL751 CHO cells, read-out: C42: EC50 for inhibition of Aβ42

SMILES	EC50 [3, 5]	EC50 [1, 6]	other results
CC(C)[C@H](O)C(=O)N[C@@H](C)C(=O)N[C@@H]1C(=O)N(C)CCc2ccccc21 [(2S)-2-hydroxy-3-methyl-N-((1S)-1-methyl-2-{[(1S)-3-methyl-2-oxo-2,3,4,5-tetrahydro-1H-3-benzazepin-1-yl]amino}-2-oxoethyl)butanamide, reference compound]			EC50 [1, 4]: 79 nM; EC50 [2]: 68 nM
O=S(=O)(O)OC[C@@H](NS(=O)(=O)c1ccc(Cl)cc1)C(C(F)(F)F)C(F)(F)F [Example 5]			EC50 ([3]; CHO, read-out: C40: EC50 for inhibition of Aβ40): 4030 nM; EC50 ([1]; CHO, read-out: C42: EC50 for inhibition of Aβ42): 4150 nM
O=S(=O)(O)OC[C@@H](NS(=O)(=O)c1ccc(Cl)s1)[C@@H](c1cc(F)cc(F)c1)C(F)(F)F [Example 6, (2S,3R)-2-{[(5-chloro-2-thienyl)sulfonyl]amino}-3-(3,5-difluorophenyl)-4,4,4-trifluorobutyl Hydrogen Sulfate, Sodium Salt]	1740 nM	1290 nM	
CC[C@H](CC(F)(F)F)[C@@H](CO)NS(=O)(=O)c1ccc(Cl)s1 [5-chloro-N-[(1S,2R)-2-ethyl-4,4,4-trifluoro-1-(hydroxymethyl)butyl]thiophene-2-sulfonamide, reference compound]			EC50 ([3]; CHO, reference standards of the beta amyloid assay, read-out: EC50αβ40): 6 nM; EC50 [1, 4]: 5 nM
CCC(CC)[C@@H](COS(=O)(=O)O)NS(=O)(=O)c1ccc(Cl)s1 [Example 3, (2S)-2-{[(5-chloro-2-thienyl)sulfonyl]amino}-3-ethylpentyl Hydrogen Sulfate, Sodium Salt]	243 nM	234 nM	
CC[C@H](C)[C@@H](COS(=O)(=O)O)NS(=O)(=O)c1ccc(Cl)cc1 [Example 4, (2S,3S)-2-{[(4-chlorophenyl)sulfonyl]amino}-3-methylpentyl Hydrogen Sulfate, Sodium Salt]	15000 nM	15000 nM	
O=S(=O)(O)OC[C@@H](NS(=O)(=O)c1ccc(Cl)s1)C(C(F)(F)F)C(F)(F)F [Example 1, (2S)-2-{[(5-chloro-2-thienyl)sulfonyl]amino}-4,4,4-trifluoro-3-(trifluoromethyl)butyl Hydrogen Sulfate, Sodium Salt]	447 nM	445 nM	
CC[C@@H](C)[C@@H](COS(=O)(=O)O)NS(=O)(=O)c1ccc(Cl)s1 [Example 2, (2S,3R)-2-{[(5-chloro-2-thienyl)sulfonyl]amino}-3-methylpentyl Hydrogen Sulfate, Sodium Salt]	15000 nM	15000 nM	

Source: patent publication US20090181932A1, “COMPOSITIONS CONTAINING O-SULFATE AND O-PHOSPHATE CONTAINING ARYL SULFONAMIDE DERIVATIVES USEFUL AS beta-AMYLOID INHIBITORS” (Wyeth, priority 2008, published 2009)
